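Cells were grown in 96-well plates and exposed to each compound for 48 hours at five concentrations; endpoints were interpolated linearly between bracketing concentrations, or set to the highest concentration if not reached. GI50: concentration for 50% inhibition of growth. TGI denotes the concentration required for complete inhibition of growth.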
Columns and labels:
Assay in all cases: DTP human tumour cell line panel, 48 h
[1] = system: 786-0 renal
[2] = system: A498 renal
[3] = system: A549 NSCLC
[4] = system: ACHN renal
[5] = system: BT-549 breast
[6] = system: CAKI-1 renal
[7] = system: CCRF-CEM leukemia
[8] = system: COLO 205 colon
[9] = system: DU-145 prostate
[10] = system: EKVX NSCLC
[11] = system: HCC-2998 colon
[12] = system: HCT-116 colon
[13] = system: HCT-15 colon
[14] = system: HOP-62 NSCLC
[15] = system: HOP-92 NSCLC
[16] = system: HS 578T breast
[17] = system: HT29 colon
[18] = system: IGROV1 ovarian
[19] = system: K-562 leukemia
[20] = system: KM12 colon
[21] = system: LOX IMVI melanoma
[22] = system: M14 melanoma
[23] = system: MALME-3M melanoma
[24] = system: MCF7 breast
[25] = system: MDA-MB-231 breast
[26] = system: MDA-MB-435
[27] = system: MOLT-4 leukemia
[28] = system: NCI-H226 lung
[29] = system: NCI-H23 lung
[30] = system: NCI-H460 lung
[31] = system: NCI-H522 lung
[32] = system: NCI/ADR-RES ovarian
[33] = system: OVCAR-3 ovarian
[34] = system: OVCAR-4 ovarian
[35] = system: OVCAR-5 ovarian
[36] = system: OVCAR-8 ovarian
[37] = system: PC-3 prostate
[38] = system: RPMI-8226 leukemia
[39] = system: RXF 393 renal
[40] = system: SF-268 CNS
[41] = system: SF-295 CNS
[42] = system: SF-539 CNS
[43] = system: SK-MEL-2 melanoma
[44] = system: SK-MEL-28 melanoma
[45] = system: SK-MEL-5 melanoma
[46] = system: SK-OV-3 ovarian
[47] = system: SN12C renal
[48] = system: SNB-19 CNS
[49] = system: SW-620 colon
[50] = system: T-47D breast
[51] = system: TK-10 renal
[52] = system: U251 CNS
[53] = system: UACC-257 melanoma
[54] = system: UACC-62 melanoma
[55] = system: UO-31 renal

Structure (SMILES): C=C(C)[C@@H]1CCC[C@]2(C(=O)O)CC[C@]3(C)[C@@H](CC[C@@H]4[C@@]5(C)C/C(=C/c6ccncc6)C(=O)C(C)(C)[C@@H]5CC[C@]43C)[C@@H]12
- GI50 [1]: 2.24 µM
- TGI [1]: 6.23 µM
- GI50 [2]: 1.62 µM
- TGI [2]: 5.01 µM
- GI50 [3]: 1.72 µM
- TGI [3]: 5.26 µM
- GI50 [4]: 2.84 µM
- TGI [4]: 11 µM
- GI50 [5]: 2.1 µM
- TGI [5]: 6.21 µM
- GI50 [6]: 3.34 µM
- TGI [6]: 13.9 µM
- GI50 [7]: 3.16 µM
- TGI [7]: > 100 µM
- GI50 [8]: 1.64 µM
- TGI [8]: 3.25 µM
- GI50 [9]: 4.03 µM
- TGI [9]: 45.1 µM
- GI50 [10]: 3.2 µM
- TGI [10]: 46.3 µM
- GI50 [11]: 1.94 µM
- TGI [11]: 4.29 µM
- GI50 [12]: 1.36 µM
- TGI [12]: 2.8 µM
- GI50 [13]: 1.85 µM
- TGI [13]: 4.31 µM
- GI50 [14]: 2.78 µM
- TGI [14]: 8.28 µM
- GI50 [15]: 1.71 µM
- TGI [15]: 7.19 µM
- GI50 [16]: 19.4 µM
- TGI [16]: > 100 µM
- GI50 [17]: 2.69 µM
- TGI [17]: 9.5 µM
- GI50 [18]: 3.02 µM
- TGI [18]: 9.31 µM
- GI50 [19]: 3.3 µM
- TGI [19]: > 100 µM
- GI50 [20]: 1.8 µM
- TGI [20]: 3.87 µM
- GI50 [21]: 1.84 µM
- TGI [21]: 3.5 µM
- GI50 [22]: 2.24 µM
- TGI [22]: 5.85 µM
- GI50 [23]: 3.46 µM
- TGI [23]: 23.2 µM
- GI50 [24]: 2.77 µM
- TGI [24]: 28.5 µM
- GI50 [25]: 3.05 µM
- TGI [25]: 24.3 µM
- GI50 [26]: 2.6 µM
- TGI [26]: 6.88 µM
- GI50 [27]: 2.07 µM
- TGI [27]: > 100 µM
- GI50 [28]: 4.66 µM
- TGI [28]: 53.4 µM
- GI50 [29]: 3.33 µM
- TGI [29]: 12.9 µM
- GI50 [30]: 1.87 µM
- TGI [30]: 4.45 µM
- GI50 [31]: 2.74 µM
- TGI [31]: 9.14 µM
- GI50 [32]: 3.99 µM
- TGI [32]: > 100 µM
- GI50 [33]: 1.89 µM
- TGI [33]: 3.85 µM
- GI50 [34]: 4.31 µM
- TGI [34]: 67.4 µM
- GI50 [35]: 2.52 µM
- TGI [35]: 11.9 µM
- GI50 [36]: 3.07 µM
- TGI [36]: > 100 µM
- GI50 [37]: 2.39 µM
- TGI [37]: 20.3 µM
- GI50 [38]: 1.8 µM
- TGI [38]: 7.5 µM
- GI50 [39]: 2.09 µM
- TGI [39]: 4.47 µM
- GI50 [40]: 3.81 µM
- TGI [40]: 91 µM
- GI50 [41]: 2.04 µM
- TGI [41]: 6.63 µM
- GI50 [42]: 2.7 µM
- TGI [42]: 11.9 µM
- GI50 [43]: 2.59 µM
- TGI [43]: 6.72 µM
- GI50 [44]: 2.1 µM
- TGI [44]: 4.58 µM
- GI50 [45]: 1.96 µM
- TGI [45]: 4.51 µM
- GI50 [46]: 4.91 µM
- TGI [46]: 34.3 µM
- GI50 [47]: 3.71 µM
- TGI [47]: > 100 µM
- GI50 [48]: 3.69 µM
- TGI [48]: 17.1 µM
- GI50 [49]: 3.14 µM
- TGI [49]: 9.6 µM
- GI50 [50]: 3.98 µM
- TGI [50]: > 100 µM
- GI50 [51]: 3.6 µM
- TGI [51]: 29.4 µM
- GI50 [52]: 2.14 µM
- TGI [52]: 7.38 µM
- GI50 [53]: 3 µM
- TGI [53]: 13.8 µM
- GI50 [54]: 2.05 µM
- TGI [54]: 5.68 µM
- GI50 [55]: 1.74 µM
- TGI [55]: 4.65 µM
